Source: ChEMBL document CHEMBL1811840, “p-hydroxyacetophenone amides from Cystobacter ferrugineus, strain Cb G35” (J Nat Prod, 2011)
The source made the active and inactive calls. The rule behind the calls is not given here.

Columns and labels:
Nocardia = experiment: Antimicrobial activity against Nocardia flava at 100 ug/mL after 24 hrs by serial dilution method; assay type: functional
[1] = tested on: Schizosaccharomyces pombe; experiment: Antimicrobial activity against Schizosaccharomyces pombe at 100 ug/mL after 24 hrs by serial dilution method; assay type: functional, organism-based
Micrococcus luteus = experiment: Antimicrobial activity against Micrococcus luteus at 100 ug/mL after 24 hrs by serial dilution method; assay type: functional, organism-based
Wickerhamomyces anomalus = experiment: Antimicrobial activity against Pichia anomala at 100 ug/mL after 24 hrs by serial dilution method; assay type: functional, organism-based
Staphylococcus aureus = experiment: Antimicrobial activity against Staphylococcus aureus at 100 ug/mL after 24 hrs by serial dilution method; assay type: functional, organism-based
Candida albicans = experiment: Antimicrobial activity against Candida albicans at 100 ug/mL after 24 hrs by serial dilution method; assay type: functional, organism-based
Escherichia coli = experiment: Antimicrobial activity against Escherichia coli at 100 ug/mL after 24 hrs by serial dilution method; assay type: functional, organism-based
[2] = tested on: Chromobacterium violaceum; experiment: Antimicrobial activity against Chromobacterium violaceum at 100 ug/mL after 24 hrs by serial dilution method; assay type: functional, organism-based
Rhodotorula glutinis = experiment: Antimicrobial activity against Rhodotorula glutinis at 100 ug/mL after 24 hrs by serial dilution method; assay type: functional, organism-based
[3] = tested on: Scenedesmus bajacalifornicus; experiment: Antimicrobial activity against Scenedesmus bajacalifornicus at 0.8 to 100 ug/mL by serial dilution method; assay type: functional; conditions: Tetradesmus bajacalifornicus
Pseudococcomyxa simplex [4] = experiment: Antimicrobial activity against Pseudococcomyxa simplex at 0.8 to 100 ug/mL by serial dilution method; assay type: functional
Bracteacoccus = experiment: Antimicrobial activity against Bracteacoccus sp. at 0.8 to 100 ug/mL by serial dilution method; assay type: functional
Chlamydomonas = experiment: Antimicrobial activity against Chlamydomonas sp. at 0.8 to 100 ug/mL by serial dilution method; assay type: functional
U-937 = experiment: Cytotoxicity against human U937 cells up to 100 ug/mL by WST-1 assay; assay type: functional, cell-based
Mucor hiemalis = experiment: Antimicrobial activity against Mucor hiemalis at 100 ug/mL by serial dilution method; assay type: functional, organism-based
Botryococcus braunii = experiment: Antimicrobial activity against Botryococcus braunii at 0.8 to 100 ug/mL by serial dilution method; assay type: functional
Pseudococcomyxa simplex [5] = experiment: Antimicrobial activity against Pseudococcomyxa simplex at 100 ug/mL by serial dilution method; assay type: functional

| SMILES | growth inhibition (GI) (Nocardia) | growth inhibition (GI) [1] | growth inhibition (GI) (Micrococcus luteus) | growth inhibition (GI) (Wickerhamomyces anomalus) | growth inhibition (GI) (Staphylococcus aureus) | growth inhibition (GI) (Candida albicans) | growth inhibition (GI) (Escherichia coli) | growth inhibition (GI) [2] | growth inhibition (GI) (Rhodotorula glutinis) | growth inhibition (GI) [3] | growth inhibition (GI) (Pseudococcomyxa simplex [4]) | growth inhibition (GI) (Bracteacoccus) | growth inhibition (GI) (Chlamydomonas) | Activity (U-937) | growth inhibition (GI) (Mucor hiemalis) | growth inhibition (GI) (Botryococcus braunii) | growth inhibition (GI) (Pseudococcomyxa simplex [5]) |
| --- | --- | --- | --- | --- | --- | --- | --- | --- | --- | --- | --- | --- | --- | --- | --- | --- | --- |
| CC(=O)NCC(=O)c1ccc(O)cc1 | inactive | inactive | inactive | inactive | inactive | inactive | inactive | inactive | inactive | inactive | inactive | inactive | inactive | inactive | inactive | inactive | – |
| CCCCCC(=O)NCC(=O)c1ccc(O)cc1 | inactive | inactive | inactive | inactive | inactive | inactive | inactive | inactive | inactive | inactive | inactive | inactive | inactive | inactive | inactive | inactive | – |
| CCCC(=O)NCC(=O)c1ccc(O)cc1 | inactive | inactive | inactive | inactive | inactive | inactive | inactive | inactive | inactive | inactive | inactive | inactive | inactive | inactive | inactive | inactive | – |
| CC(C)CC(=O)N/C=C/c1ccc(O)cc1 | inactive | inactive | inactive | inactive | inactive | inactive | inactive | inactive | inactive | inactive | – | inactive | inactive | inactive | inactive | inactive | Active |
| CC(C)CCC(=O)NCC(=O)c1ccc(O)cc1 | inactive | inactive | inactive | inactive | inactive | inactive | inactive | inactive | inactive | inactive | inactive | inactive | inactive | inactive | inactive | inactive | – |
| CC(C)CC(=O)NCC(=O)c1ccc(O)cc1 | inactive | inactive | inactive | inactive | inactive | inactive | inactive | inactive | inactive | inactive | inactive | inactive | inactive | inactive | inactive | inactive | – |
